Biological target: recombinant human MGAT2 (Homo sapiens (Human), UniProt Q3SYC2)
Experiment: Measurement of human MGAT2 inhibitory activity
Type: biochemical
Details: read-out: IC50 (concentration exhibiting 50% enzyme inhibition), Table 52
Procedure: A full-length human MGAT2 gene to which a Flag-tag had been added at the N-terminal was inserted into pFastBac (from Invitrogen). A recombinant baculovirus was produced in accordance with the protocol for a Bac-to-Bac baculovirus expression system (produced by Invitrogen), and Sf-9 cells were infected therewith. The cells were collected and sonicated, and then the membrane fraction was collected through centrifugation. Western blotting analysis with an anti-Flag antibody was performed for the membrane fraction to confirm expression, and the membrane fraction was used as a recombinant human MGAT2 enzyme solution.
Solutions of the compounds of the present invention in DMSO were each aliquoted into 0.2-μL portions in a 384-well polystyrene microplate produced by Corning Incorporated, and 5 μL of an enzyme solution prepared with an assay buffer (100 mmol/L phosphate buffer (pH 7.4) containing 2 mmol/L DTT) and 5 μL of a substrate solution (100 mmol/L phosphate buffer (pH 7.4), 30 μmol/L 2-Oleoylglycerol, 10 μmol/L Oleoyl-CoA) were added thereto, and the resultant was stirred and centrifuged, and incubated in a moist chamber at room temperature for 1 hour. After enzymatic reaction, 50 μL of a quenching solution (containing 0.2 μmol/L Diolein-d5, 0.4% formic acid, and 50% isopropanol) containing Internal Standard (IS) was added to terminate the reaction, and the resultant was sealed in a plate produced by Shimadzu GLC Ltd., and then stirred and centrifuged, and measurement was performed by using an electrospray ionization method with a RapidFire360 and Agilent 6550 Q-TOF mass spectrometer. Diolein as a reaction product (P) of 2-Oleoylglycerol as the substrate and an ammonium adduct ion of the IS were detected, and the peak intensity ratio, P/IS, was calculated from the peak heights to evaluate the inhibitory activity. Inhibitory activities with/without addition of enzyme were defined as Control (+)/Control (−), respectively, and the respective % inhibitions were defined as 0% inhibition and 100% inhibition. The inhibitory activity was calculated from formula below with TIBCO Spotfire (produced by TIBCO Software Inc.): Inhibitory activity (%)=[1−{Sample−Control(−)}/{Control(+)−Control(−)}]*100 where Sample indicates a peak intensity ratio: P/IS, when the compound of the present invention was added.

recombinant human MGAT2, sequence (Q3SYC2 whole entry): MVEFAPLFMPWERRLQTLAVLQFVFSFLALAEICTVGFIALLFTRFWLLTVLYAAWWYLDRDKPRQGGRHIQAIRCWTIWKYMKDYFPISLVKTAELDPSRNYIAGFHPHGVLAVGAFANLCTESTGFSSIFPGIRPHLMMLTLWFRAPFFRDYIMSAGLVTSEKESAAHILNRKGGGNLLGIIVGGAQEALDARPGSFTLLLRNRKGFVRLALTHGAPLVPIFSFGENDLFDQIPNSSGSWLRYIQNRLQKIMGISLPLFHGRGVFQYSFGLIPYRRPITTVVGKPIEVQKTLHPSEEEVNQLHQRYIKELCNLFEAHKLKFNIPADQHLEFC

IC50 [µM]	Compound
0.0505	CS(=O)(=O)NC(=O)c1c2c(nn1CCC1CC1)C[C@]1(CCc3cc(OCC(F)(F)F)ccc31)NC2=O [Compound I-279]
0.095	CS(=O)(=O)CC(=O)Nc1c2c(nn1CCCC#N)C[C@]1(CCc3cc(OCC(F)(F)F)ccc31)NC2=O [Compound I-254]
0.022	CS(=O)(=O)CC(=O)Nc1c2c(nn1-c1cccc(Cl)c1)C[C@]1(CCc3cc(OCC(F)(F)F)ccc31)NC2=O [Compound I-124]
0.46	CCS(=O)(=O)NCc1c2c(nn1CCC1CC1)C[C@]1(CCc3cc(OCC(F)(F)F)ccc31)NC2=O [Compound I-194]
0.27	CC1(NC(=O)c2c3c(nn2CCC2CC2)C[C@]2(CCc4cc(OCC(F)(F)F)ccc42)NC3=O)COC1 [Compound I-88]
0.19	O=C1N[C@@]2(CCc3cc(OCC(F)(F)F)ccc32)Cc2nn(CCC3CC3)c(C(=O)NS(=O)(=O)c3ccccc3)c21 [Compound I-111]
0.0055	CS(=O)(=O)CC(=O)Nc1c2c(nn1-c1ccc(F)cc1)C[C@@]1(CCc3cc(OCC(F)(F)F)ccc31)NC2=O [Compound I-269]
0.38	CC(C)NC(=O)Nc1c2c(nn1CCC1CC1)C[C@]1(CCc3cc(OCCCC(F)(F)F)ccc31)NC2=O [Compound I-14]
0.0555	CS(=O)(=O)CC(=O)Nc1c2c(nn1-c1cccc(F)c1)C[C@]1(CCc3cc(OCC(F)(F)F)ccc31)NC2=O [Compound I-123]
0.435	CC(=O)NCC(=O)Nc1c2c(nn1CCC1CC1)C[C@]1(CCc3cc(OCCCC(F)(F)F)ccc31)NC2=O [Compound I-28]
0.1	O=C(NCc1c2c(nn1CCC1CC1)C[C@]1(CCc3cc(OCC(F)(F)F)ccc31)NC2=O)c1ncco1 [Compound I-150]
0.24	N#CC1(C(=O)NCc2c3c(nn2CCC2CC2)C[C@]2(CCc4cc(OCC(F)(F)F)ccc42)NC3=O)CC1 [Compound I-153]
0.09	CNS(=O)(=O)Nc1c2c(nn1CCC1CC1)C[C@]1(CCc3cc(OCCCC(F)(F)F)ccc31)NC2=O [Compound I-13]
0.015	O=C(CC(F)(F)F)Nc1c2c(nn1CCC1CC1)C[C@]1(CCc3cc(OCCCC(F)(F)F)ccc31)NC2=O [Compound I-26]
0.0039	CS(=O)(=O)CC(=O)Nc1c2c(nn1CCC1CC1)C[C@@]1(CCc3cc(OCC(F)(F)F)ccc31)NC2=O [Compound I-71]
0.048	O=C(Nc1c2c(nn1CCC1CC1)C[C@]1(CCc3cc(OCC(F)(F)F)ccc31)NC2=O)c1ccoc1 [Compound I-218]

IC50 [µM]	Compound
0.036	CS(=O)(=O)CC(=O)Nc1c2c(nn1-c1cccnn1)C[C@]1(CCc3cc(OCC(F)(F)F)ccc31)NC2=O [Compound I-265]
0.0032	CNS(=O)(=O)CC(=O)Nc1c2c(nn1CCC1CC1)C[C@]1(CCc3cc(OCCCC(F)(F)F)ccc31)NC2=O [Compound I-31]
0.083	O=C1N[C@@]2(CCc3cc(OCC(F)(F)F)ccc32)Cc2nn(CCC3CC3)c(CNC(=O)C3CC3)c21 [Compound I-145]
0.0018	CS(=O)(=O)CC(=O)Nc1c2c(nn1-c1ccc(C#N)cn1)C[C@@]1(CCc3cc(N4CC(C(F)(F)F)C4)ccc31)NC2=O [Compound I-122]
0.02	CS(=O)(=O)CC(=O)Nc1c2c(nn1-c1ccncn1)C[C@@]1(CCc3cc(OCC(F)(F)F)ccc31)NC2=O [Compound I-272]
0.0062	CS(=O)(=O)CC(=O)Nc1c2c(nn1CCC1CC1)C[C@]1(CCc3cc(N4CC(F)(F)C4)cc(F)c31)NC2=O [Compound I-202]
0.00935	CS(=O)(=O)CC(=O)Nc1c2c(nn1-c1ccc(C#N)cn1)C[C@]1(CCc3cc(F)cc(F)c31)NC2=O [Compound I-284]
0.0029	O=C1N[C@@]2(CCc3cc(OCC(F)(F)F)ccc32)Cc2nn(CCC3CC3)c(C(=O)NS(=O)(=O)C(F)(F)F)c21 [Compound I-108]
0.6	O=C(CN1CCCC1=O)Nc1c2c(nn1CCC1CC1)C[C@]1(CCc3cc(OCCCC(F)(F)F)ccc31)NC2=O [Compound I-27]
0.039	O=C1N[C@@]2(CCc3cc(OCC(F)(F)F)ccc32)Cc2nn(CCC3CC3)c(CNC(=O)C3CCC3)c21 [Compound I-147]
0.024	CS(=O)(=O)CC(=O)Nc1c2c(nn1-c1ccc3c(c1)CCC3)C[C@]1(CCc3cc(OCC(F)(F)F)ccc31)NC2=O [Compound I-246]
0.5	CNC(=O)c1c2c(nn1CCC1CC1)C[C@]1(CCc3cc(OCCCC(F)(F)F)ccc31)NC2=O [Compound I-11]
0.047	O=C1N[C@@]2(CCc3cc(OCC(F)(F)F)ccc32)Cc2nn(CCC3CC3)c(C(=O)NS(=O)(=O)C3CCC3)c21 [Compound I-121]
0.0052	CS(=O)(=O)CC(=O)Nc1c2c(nn1CCC1CC1)C[C@@]1(CCc3cc(N4CC(F)(F)C4)ccc31)NC2=O [Compound I-165]
0.11	O=C(Nc1c2c(nn1CCC1CC1)C[C@]1(CCc3cc(OCC(F)(F)F)ccc31)NC2=O)c1csnn1 [Compound I-219]

Same assay, conditions: read-out: IC50 (concentration exhibiting 50% enzyme inhibition), Table 53

IC50 [µM]	Compound
0.007	CS(=O)(=O)CC(=O)Nc1c2c(nn1CCCCC(F)(F)F)C[C@]1(CCOc3cc(OCC(F)(F)F)ccc31)NC2=O [II-25]
0.02	CS(=O)(=O)CC(=O)Nc1c2c(nn1-c1ccncn1)C[C@]1(CCOc3cc(OCC(F)(F)F)ccc31)NC2=O [II-7]
0.003	CS(=O)(=O)CC(=O)Nc1c2c(nn1CCC1CC1)C[C@@]1(CCc3cc(N4CC(Oc5ccccc5)C4)ccc31)NC2=O [II-43]
0.001	CS(=O)(=O)CC(=O)Nc1c2c(nn1CCCOC(F)(F)F)C[C@@]1(CCc3cc(OCC(F)(F)C(F)(F)F)ccc31)NC2=O [II-261]
0.0245	N#Cc1ccc(-n2nc3c(c2C(=O)NCC2CCO2)C(=O)N[C@@]2(CCc4cc(OCC(F)(F)F)ccc42)C3)nc1 (some centres unmarked) [II-187]
0.0126	Cc1nocc1-c1ccc2c(c1)CC[C@@]21Cc2nn(CCC3CC3)c(NC(=O)CS(C)(=O)=O)c2C(=O)N1 [II-71]
0.00883	O=C1N[C@@]2(CCc3cc(OCC(F)(F)F)ccc32)Cc2nn(CCCOC(F)F)c(C(=O)NS(=O)(=O)C3CC3)c21 [II-262]
0.0187	Cc1ccc(-n2nc3c(c2C(=O)NCC(N)=O)C(=O)N[C@@]2(CCc4cc(OCC(F)(F)F)ccc42)C3)nc1 [II-196]
0.0825	Cc1ccc(-n2nc3c(c2C(=O)NCC#N)C(=O)N[C@@]2(CCc4cc(OCC(F)(F)F)ccc42)C3)cc1F [II-219]
0.00929	Cc1ccc(-n2nc3c(c2NC(=O)CS(C)(=O)=O)C(=O)N[C@@]2(CCc4cc(N5CC(F)(F)C5)ccc42)C3)nc1 [II-120]
0.0467	Cc1ccc(-n2nc3c(c2C(=O)NS(=O)(=O)CCC(F)(F)F)C(=O)N[C@@]2(CCc4cc(OCC(F)(F)F)ccc42)C3)nc1 [II-212]
0.0217	COCCCNC(=O)c1c2c(nn1-c1ccc(C#N)cn1)C[C@]1(CCc3cc(OCC(F)(F)F)ccc31)NC2=O [II-123]
0.0268	N#Cc1ccc(-n2nc3c(c2C(=O)NCC2(O)CCOC2)C(=O)N[C@@]2(CCc4cc(OCC(F)(F)F)ccc42)C3)nc1 (some centres unmarked) [II-119]
0.0208	CS(=O)(=O)CC(=O)Nc1c2c(nn1CCC1CC1)C[C@]1(CCc3c1ccc(OCC(F)(F)F)c3F)NC2=O [II-166]
0.0231	N#Cc1ccc(-n2nc3c(c2C(=O)NCC2(CO)CCCC2)C(=O)N[C@@]2(CCc4cc(OCC(F)(F)F)ccc42)C3)nc1 [II-109]
0.00156	CS(=O)(=O)CC(=O)Nc1c2c(nn1CCCOC(F)(F)F)C[C@@]1(CCc3cc(OCC(F)(F)F)ccc31)NC2=O [II-20]
0.00134	CS(=O)(=O)CC(=O)Nc1c2c(nn1CCCOC(F)F)C[C@]1(CCc3cc(OCC(F)(F)F)ccc31)NC2=O [II-173]
0.0254	CS(=O)(=O)CC(=O)Nc1c2c(nn1-c1ccccc1)C[C@]1(CCc3cc(OCC(F)(F)F)ccc31)NC2=O [II-175]
0.016	CS(=O)(=O)CC(=O)Nc1c2c(nn1CCC1CC1)CC1(CN(c3ccc(C(F)(F)F)cc3)C1)NC2=O [II-58]
0.033	N#Cc1ccc(-n2nc3c(c2NC(=O)c2cocn2)C(=O)N[C@@]2(CCc4cc(OCC(F)(F)F)ccc42)C3)nc1 [II-59]
0.0524	Cc1ccc(-n2nc3c(c2C(=O)NS(C)(=O)=O)C(=O)N[C@@]2(CCc4cc(OCC(F)(F)F)ccc42)C3)cc1F [II-223]
0.0563	CS(=O)(=O)CC(=O)Nc1c2c(nn1-c1ccc(C#N)cn1)CC1(Cc3cc(F)c(F)cc3C1)NC2=O [II-102]
0.00494	Cc1ccc(-n2nc3c(c2NC(=O)CS(C)(=O)=O)C(=O)N[C@@]2(CCOc4cc(OC(C)C)ccc42)C3)nc1 [II-153]
0.0128	CS(=O)(=O)CC(=O)Nc1c2c(nn1-c1ccc(OC(F)F)cc1)C[C@]1(CCc3cc(OCC(F)(F)F)ccc31)NC2=O [II-141]
0.00115	CS(=O)(=O)CC(=O)Nc1c2c(nn1CCCOC(F)F)C[C@@]1(CCc3cc(CCC(F)(F)F)ccc31)NC2=O [II-286]

Reference: patent publication US11198695B2, “Fused ring derivative having MGAT-2 inhibitory activity” (Shionogi & Co., Ltd., priority 2017, dated 2021)
